This assay has as its target Mtb-SufS (Mycobacterium tuberculosis, UniProt P9WQ69).

Structures are written as SMILES.

Mtb-SufS, sequence (P9WQ69 whole entry): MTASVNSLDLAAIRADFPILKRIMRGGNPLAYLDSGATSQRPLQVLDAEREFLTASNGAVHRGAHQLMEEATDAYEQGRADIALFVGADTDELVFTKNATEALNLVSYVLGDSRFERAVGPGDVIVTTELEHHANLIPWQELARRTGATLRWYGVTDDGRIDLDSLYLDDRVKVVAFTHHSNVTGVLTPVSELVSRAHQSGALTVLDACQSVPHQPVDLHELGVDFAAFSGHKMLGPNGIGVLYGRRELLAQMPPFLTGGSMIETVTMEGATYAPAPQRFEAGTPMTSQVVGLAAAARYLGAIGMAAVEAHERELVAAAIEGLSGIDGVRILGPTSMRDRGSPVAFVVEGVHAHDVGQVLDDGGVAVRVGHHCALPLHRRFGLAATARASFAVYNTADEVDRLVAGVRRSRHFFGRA

Turning to `N[C@@H](CS)C(=O)O` [L-Cys], the “GC-MS assay of L-Ala formation” value is given as “Mtb-SufS shows low basal activity”.

(Values after article doi:10.1101/2025.06.15.659787v1 (biorxiv, 2025).)
